Assay results as given in patent US20070117743A1, “New antitumoral compounds” (priority 2003, published 2007).
Where a SMILES comes first, the peptide text is derived from it. Bridges are numbered along the chain shown (N, C = ends). [ ]: non-standard residue; d: D form. The star is where a group is joined. d(aIle) = CC[C@H](C)[C@@H](N)C(=O)O; d(aThr) = C[C@@H](O)[C@@H](N)C(=O)O; Hexanoyl(5-Me) = CC(C)CCCC(=O)*; d(hCys) = N[C@H](CCS)C(=O)O; Orn = NCCC[C@H](N)C(=O)O; Dhb = C/C=C(\N)C(=O)O

Legend:
Assay type in all cases: cell-based, human
HT-29 = assay: SRB colorimetric assay of cell growth and viability, HT-29; conditions: HT-29 cells, 48 hours exposure, SRB; for GI50: read-out: GI50 (growth inhibition at 50%); for CC50: read-out: LC50 (lethal concentration at 50%)
A-549 = assay: SRB colorimetric assay of cell growth and viability, A-549; conditions: A-549 cells, 48 hours exposure, SRB; for GI50: read-out: GI50 (growth inhibition at 50%); for CC50: read-out: LC50 (lethal concentration at 50%)
MB-231 = assay: SRB colorimetric assay of cell growth and viability, MB-231; conditions: for TGI (total growth inhibition): MB-231 cells, 48 hours exposure; for GI50: read-out: GI50 (growth inhibition at 50%), MB-231 cells, 48 hours exposure; for CC50: read-out: LC50 (lethal concentration at 50%), MB-231 cells, 48 hours exposure
Text: The finality of this assay is to interrupt the growth of a “in vitro” tumor cell culture by means a continued exhibition of the cells to the sample to be testing.
A colorimetric type of assay, using sulforhodamine B (SRB) reaction has been adapted for a quantitative measurement of cell growth and viability [following the technique described by Philip Skehan, et al. (1990), New colorimetric cytotoxicity assay for anticancer drug screening, J. Natl. Cancer Inst., 82:1107-1112].
This form of the assay employs 96 well cell culture microplates of 9 mm diameter (Faircloth, 1988; Mosmann, 1983). Most of the cell lines are obtained from American Type Culture Collection (ATCC) derived from different human cancer types.
Cells are maintained in RPMI 1640 10% FBS, supplemented with 0.1 g/l penicillin and 0.1 g/l streptomycin sulfate and then incubated at 37° C., 5% CO2 and 98% humidity. For the experiments, cells were harvested from subconfluent cultures using trypsin and resuspended in fresh medium before plating.
Cells are seeded in 96 well microtiter plates, at 5×10^3 cells per well in aliquots of 195 μL medium, and they are allowed to attach to the plate surface by growing in drug free medium for 18 hours. Afterward, samples are added in aliquots of 5 μL in a ranging from 10 to 10^−8 μg/mL, dissolved in DMSO:EtOH:PBS (0.5:0.5:99). After 48 hours exposure, the antitumor effect are measured by the SRB methodology: cells are fixed by adding 50 μL of cold 50% (wt/vol) trichloroacetic acid (TCA) and incubating for 60 minutes at 4° C. Plates are washed with deionized water and dried. One hundred μL of SRB solution (0.4% wt/vol in 1% acetic acid) is added to each microtiter well and incubated for 10 minutes at room temperature. Unbound SRB is removed by washing with 1% acetic acid. Plates are air dried and bound stain is solubilized with Tris buffer. Optical densities are read on a automated spectrophotometric plate reader at a single wavelength of 490 nm.
The values for mean+/− SD of data from triplicate wells are calculated. Some parameters for cellular responses can be calculated: GI=growth inhibition, TGI=total growth inhibition (cytostatic effect) and LC=cell killing (cytotoxic effect).

`C/C=C1\NC(=O)[C@H](Cc2ccccc2)NC(=O)[C@@H](C(C)C)NC(=O)[C@@H]([C@@H](C)CC)NC(=O)[C@H](NC(=O)[C@H](NC(=O)[C@H](CCCN)NC(=O)[C@H]2CCCN2C(=O)[C@H](NC(=O)[C@@H](NC(=O)[C@@H](NC(=O)[C@H](NC(=O)CCCC(C)C)C(C)C)[C@@H](C)O)C(C)C)C(C)C)[C@H](C)CC)[C@@H](C)OC(=O)[C@H](C(C)C)NC1=O` [Compound 104, [D-Ile^7]-KF] was tested, and the “TGI (total growth inhibition)” value (HT-29) was 3.39E−07 Molar, the GI50 (HT-29) was 0.314 µM and the CC50 (HT-29) was 0.371 µM. For the same molecule, the “TGI (total growth inhibition)” value (A-549) was 1.13E−06 Molar, the GI50 (A-549) was 0.942 µM and the CC50 (A-549) was 1.51 µM. The “TGI (total growth inhibition)” value (MB-231) was 5.34E−06 Molar, the GI50 (MB-231) was 5.09 µM and the CC50 (MB-231) was 5.59 µM.
In the case of `C/C=C1\NC(=O)[C@H](Cc2ccccc2)NC(=O)[C@@H](C(C)C)NC(=O)[C@@H]([C@@H](C)CC)NC(=O)[C@H](NC(=O)[C@H](NC(=O)[C@H](CCCN)NC(=O)[C@H]2CCCN2C(=O)[C@H](NC(=O)[C@@H](NC(=O)[C@@H](NC(=O)[C@H](NC(=O)CCCC(C)C)C(C)C)[C@@H](C)O)C(C)C)C(C)C)C(C)C)[C@@H](C)OC(=O)[C@H](C(C)C)NC1=O` [Compound 105, [D-Val^7]-KF] ({Hexanoyl(5-Me)}-[dV]TV[dV][dP][Orn][dV][d(aThr)][d(aIle)][dV]F[Dhb]V; ester 8-C), the “TGI (total growth inhibition)” value (HT-29) is reported as 8.87E−07 Molar, the GI50 (HT-29) is reported as 0.824 µM and the CC50 (HT-29) is reported as 0.887 µM. For the same molecule, the “TGI (total growth inhibition)” value (A-549) was 2.60E−06 Molar, the GI50 (A-549) was 2.28 µM and the CC50 (A-549) was 3.04 µM. For the same molecule, the “TGI (total growth inhibition)” value (MB-231) was 6.33E−06 Molar.
For `C/C=C1\NC(=O)[C@H](Cc2ccccc2)NC(=O)[C@@H](C(C)C)NC(=O)[C@@H]([C@@H](C)CC)NC(=O)[C@H](NC(=O)[C@H](NC(=O)[C@@H](CCCN)NC(=O)[C@@H]2CCCN2C(=O)[C@H](NC(=O)[C@@H](NC(=O)[C@@H](NC(=O)[C@H](NC(=O)CCCC(C)C)C(C)C)[C@@H](C)O)C(C)C)C(C)C)[C@@H](C)CC)[C@@H](C)OC(=O)[C@H](C(C)C)NC1=O` [Compound 106, [D-Orn^8, L-Pro^9]-KF], the “TGI (total growth inhibition)” value (HT-29) was 6.77E−06 Molar, the GI50 (HT-29) was 6.77 µM and the CC50 (HT-29) was 6.77 µM. For the same molecule, the “TGI (total growth inhibition)” value (A-549) was 6.77E−06 Molar, the GI50 (A-549) was 6.77 µM and the CC50 (A-549) was 6.77 µM. The “TGI (total growth inhibition)” value (MB-231) was 6.77E−06 Molar, the GI50 (MB-231) was no less than 6.77 µM and the CC50 (MB-231) was no less than 6.77 µM.
`C/C=C1\NC(=O)[C@H](Cc2ccccc2)NC(=O)[C@@H](C(C)C)NC(=O)[C@@H]([C@@H](C)CC)NC(=O)[C@H](NC(=O)[C@@H](CS)NC(=O)[C@H](CCCN)NC(=O)[C@H]2CCCN2C(=O)[C@H](NC(=O)[C@H](CS)NC(=O)[C@@H](NC(=O)[C@H](NC(=O)CCCC(C)C)C(C)C)[C@@H](C)O)C(C)C)[C@@H](C)OC(=O)[C@H](C(C)C)NC1=O` [Compound 107, [D-Cys^7, L-Cys^11]-KF] ({Hexanoyl(5-Me)}-[dV]TC[dV][dP][Orn][dC][d(aThr)][d(aIle)][dV]F[Dhb]V; ester 8-C) was tested, and the “TGI (total growth inhibition)” value (HT-29) was 6.80E−06 Molar, the GI50 (HT-29) was 6.8 µM and the CC50 (HT-29) was 6.8 µM. The “TGI (total growth inhibition)” value (A-549) was 6.80E−06 Molar, the GI50 (A-549) was 6.8 µM and the CC50 (A-549) was 6.8 µM. The “TGI (total growth inhibition)” value (MB-231) was 6.80E−06 Molar.
For `C/C=C1\NC(=O)[C@H](Cc2ccccc2)NC(=O)[C@@H](C(C)C)NC(=O)[C@@H]([C@@H](C)CC)NC(=O)[C@H](NC(=O)[C@@H](CS)NC(=O)[C@H](CCCN)NC(=O)[C@H]2CCCN2C(=O)[C@@H](CS)NC(=O)[C@@H](NC(=O)[C@@H](NC(=O)[C@H](NC(=O)CCCC(C)C)C(C)C)[C@@H](C)O)C(C)C)[C@@H](C)OC(=O)[C@H](C(C)C)NC1=O` [Compound 108, [D-Cys^7, D-Cys^10]-KF] ({Hexanoyl(5-Me)}-[dV]TV[dC][dP][Orn][dC][d(aThr)][d(aIle)][dV]F[Dhb]V; ester 8-C), the “TGI (total growth inhibition)” value (HT-29) was 6.53E−06. Molar, the GI50 (HT-29) was 6.53 µM and the CC50 (HT-29) was 6.53 µM. For the same molecule, the “TGI (total growth inhibition)” value (A-549) was 6.53E−06. Molar, the GI50 (A-549) was 6.53 µM and the CC50 (A-549) was 6.53 µM. The “TGI (total growth inhibition)” value (MB-231) was 6.53E−06. Molar.
In the case of `C/C=C1\NC(=O)[C@H](Cc2ccccc2)NC(=O)[C@@H](C(C)C)NC(=O)[C@@H]([C@@H](C)CC)NC(=O)[C@H](NC(=O)[C@@H](CCS)NC(=O)[C@H](CCCN)NC(=O)[C@H]2CCCN2C(=O)[C@@H](CCS)NC(=O)[C@@H](NC(=O)[C@@H](NC(=O)[C@H](NC(=O)CCCC(C)C)C(C)C)[C@@H](C)O)C(C)C)[C@@H](C)OC(=O)[C@H](C(C)C)NC1=O` [Compound 109, [D-homoCys^7, D-homoCys^10]-KF] ({Hexanoyl(5-Me)}-[dV]TV[d(hCys)][dP][Orn][d(hCys)][d(aThr)][d(aIle)][dV]F[Dhb]V; ester 8-C), the “TGI (total growth inhibition)” value (HT-29) is reported as 6.26E−06 Molar, the GI50 (HT-29) is reported as 6.26 µM and the CC50 (HT-29) is reported as 6.26 µM. For the same molecule, the “TGI (total growth inhibition)” value (A-549) was 6.26E−06 Molar, the GI50 (A-549) was 6.26 µM and the CC50 (A-549) was 6.26 µM. For the same molecule, the “TGI (total growth inhibition)” value (MB-231) was 6.26E−06 Molar.
With `C/C=C1\NC(=O)[C@H](Cc2ccccc2)NC(=O)[C@@H](C(C)C)NC(=O)[C@@H]([C@@H](C)CC)NC(=O)[C@H](NC(=O)[C@H](NC(=O)[C@H](CCCN)NC(=O)[C@H]2CCCN2C(=O)[C@H](NC(=O)[C@@H](NC(=O)[C@@H](NC(=O)[C@H](NC(=O)CCCC(C)C)C(C)C)[C@@H](C)O)C(C)C)C(C)C)[C@@H](C)CC)[C@@H](C)OC(=O)[C@@H](C(C)C)NC1=O` [Compound 110, [D-Val^1]-KF] the “TGI (total growth inhibition)” value (HT-29) was 5.15E−07 Molar, the GI50 (HT-29) was 0.408 µM and the CC50 (HT-29) was 0.691 µM. The “TGI (total growth inhibition)” value (A-549) was 1.13E−06 Molar, the GI50 (A-549) was 0.879 µM and the CC50 (A-549) was 1.63 µM. The “TGI (total growth inhibition)” value (MB-231) was 3.71E−06 Molar, the GI50 (MB-231) was 3.2 µM and the CC50 (MB-231) was 6.28 µM.
